{
  "source": "patent US12691112B2",
  "about": "“FGFR tyrosine kinase inhibitors for the treatment of urothelial carcinoma” (Janssen Pharmaceutica NV, priority 2019, dated 2026)",
  "system": "metastatic or surgically unresectable urothelial cancer harboring select FGFR genetic alterations",
  "settings": "for Disease control rate (CR + PR + SD) / Inevaluable / Objective response rate (CR + PR) / Progressive disease (PD) / Confirmed complete response (CR) / Confirmed partial response (PR) / 6-month progression-free survival rate (95% CI), among responders / 9-month progression-free survival rate (95% CI), among responders / 12-month progression-free survival rate (95% CI), among responders: chemo relapsed/refractory",
  "from_the_text": "The study comprises a Screening Phase (molecular screening at any time prior to first dose and study screening within 30 days of first dose), a treatment phase, and a post-treatment follow-up phase. The treatment phase comprises the period from first dose until the end-of-treatment visit. The follow-up phase extends until the subject has died, withdraws consent, is lost to follow-up, or the end of study, whichever comes first.\nIncluded patients were adults with measurable urothelial cancer per Response Evaluation Criteria in Solid Tumors version 1.1.\nPatients were required to have at least 1 FGFR2/FGFR3 mutation or fusion per central lab testing of RNA from formalin-fixed, paraffin-embedded tumor samples, using a custom reverse transcriptase polymerase chain reaction assay.\nPatients were contacted every 12 weeks for survival assessment.\nThe study was designed to enroll 180 patients with specified FGFR alterations. Of these, ≥88 were required in the selected regimen. […] Responses were assessed by investigators and an independent radiological review committee. Progression-free survival and overall survival were estimated using Kaplan-Meier product limit method. Data from patients who were progression free and alive or with unknown status were censored at last tumor assessment. Efficacy end points were analysed at primary analysis cut-off.",
  "key": {"[1]": {"settings": "10 mg 7 on/7 off, Mutation and fusion: FGFR3-S249C/FGFR3-Y373C/FGFR2-CASP7/FGFR3-BAIAP2L1/FGFR3-TACC3 V1/FGFR3-TACC3 V3, n=1"}, "[2]": {"settings": "10 mg 7 on/7 off, Mutation: FGFR3-G370C/FGFR3-S249C, n=1"}, "[3]": {"settings": "10 mg 7 on/7 off, Mutation: FGFR3-R248C/FGFR3-Y373C, n=1"}, "[4]": {"settings": "10 mg 7 on/7 off, Mutation: FGFR3-S249C/FGFR3-Y373C, n=1"}, "[5]": {"settings": "Regimen 1, 10 mg intermittent (n=33)"}, "[6]": {"settings": "Regimen 2, 6 mg continuous (n=78)"}, "[7]": {"settings": "Regimen 3, 8 mg continuous (n=99)"}, "[8]": {"settings": "Total (all 3 regimens), Any FGFR alterations, n=189"}, "[9]": {"settings": "Total (all 3 regimens), FGFR fusions (excluding mutations), 6 responders"}, "[10]": {"settings": "Total (all 3 regimens), FGFR fusions (excluding mutations), n=35"}, "[11]": {"settings": "Total (all 3 regimens), FGFR mutations (excluding fusions), 58 responders"}, "[12]": {"settings": "Total (all 3 regimens), FGFR mutations (excluding fusions), n=147"}, "[13]": {"settings": "Total (all 3 regimens), FGFR mutations and fusions, 4 responders"}},
  "note": "Values joined by “and” are separate entries in the source; they are usually repeats but may differ in a detail not shown here. Equal values may be shown once. Read-outs that look alike come from different tables or passages of the source.",
  "data": [
    {"smiles": "COc1cc(OC)cc(N(CCNC(C)C)c2ccc3ncc(-c4cnn(C)c4)nc3c2)c1", "note": "[erdafitinib, N-(3,5-dimethoxy-phenyl)-N′-(1-methylethyl)-N-[3-(1-methyl-1H-pyrazol-4-yl)quinoxalin-6-yl]ethane-1,2-diamine]", "values": [
      {"measurement": "Disease control rate (CR + PR + SD)", "setting": "[1]", "value": "1 (100.0%)"},
      {"measurement": "Inevaluable", "setting": "[1]", "value": 0, "unit": "%"},
      {"measurement": "Objective response rate (CR + PR)", "setting": "[1]", "value": 0, "unit": "%"},
      {"measurement": "Progressive disease (PD)", "setting": "[1]", "value": 0, "unit": "%"},
      {"measurement": "Confirmed complete response (CR)", "setting": "[2]", "value": 0, "unit": "%"},
      {"measurement": "Confirmed partial response (PR)", "setting": "[2]", "value": "1 (100.0%)"},
      {"measurement": "Disease control rate (CR + PR + SD)", "setting": "[2]", "value": "1 (100.0%)"},
      {"measurement": "Inevaluable", "setting": "[2]", "value": 0, "unit": "%"},
      {"measurement": "Objective response rate (CR + PR)", "setting": "[2]", "value": "1 (100.0%)"},
      {"measurement": "Progressive disease (PD)", "setting": "[2]", "value": 0, "unit": "%"},
      {"measurement": "Confirmed complete response (CR)", "setting": "[3]", "value": 0, "unit": "%"},
      {"measurement": "Confirmed partial response (PR)", "setting": "[3]", "value": "1 (100.0%)"},
      {"measurement": "Disease control rate (CR + PR + SD)", "setting": "[3]", "value": "1 (100.0%)"},
      {"measurement": "Inevaluable", "setting": "[3]", "value": 0, "unit": "%"},
      {"measurement": "Objective response rate (CR + PR)", "setting": "[3]", "value": "1 (100.0%)"},
      {"measurement": "Progressive disease (PD)", "setting": "[3]", "value": 0, "unit": "%"},
      {"measurement": "Confirmed complete response (CR)", "setting": "[4]", "value": 0, "unit": "%"},
      {"measurement": "Confirmed partial response (PR)", "setting": "[4]", "value": 0, "unit": "%"},
      {"measurement": "Disease control rate (CR + PR + SD)", "setting": "[4]", "value": "1 (100.0%)"},
      {"measurement": "Inevaluable", "setting": "[4]", "value": 0, "unit": "%"},
      {"measurement": "Objective response rate (CR + PR)", "setting": "[4]", "value": 0, "unit": "%"},
      {"measurement": "Progressive disease (PD)", "setting": "[4]", "value": 0, "unit": "%"},
      {"measurement": "Complete response per investigator assessment", "setting": "[5]", "value": "1 (3) %"},
      {"measurement": "Not evaluable or unknown per investigator assessment", "setting": "[5]", "value": "2 (6) %"},
      {"measurement": "Objective response rate per investigator assessment", "setting": "[5]", "value": "7 (21) %"},
      {"measurement": "Partial response per investigator assessment", "setting": "[5]", "value": "6 (18) %"},
      {"measurement": "Progressive disease per investigator assessment", "setting": "[5]", "value": "6 (18) %"},
      {"measurement": "Stable disease per investigator assessment", "setting": "[5]", "value": "18 (55) %"},
      {"measurement": "Objective response rate per investigator assessment", "setting": "Regimen 1, 10 mg intermittent, liver metastases", "value": "3/11 (27) %"},
      {"measurement": "Complete response per investigator assessment", "setting": "[6]", "value": "3 (4) %"},
      {"measurement": "Not evaluable or unknown per investigator assessment", "setting": "[6]", "value": "5(6) %"},
      {"measurement": "Objective response rate per investigator assessment", "setting": "[6]", "value": "27 (35) %"},
      {"measurement": "Partial response per investigator assessment", "setting": "[6]", "value": "24 (31) %"},
      {"measurement": "Progressive disease per investigator assessment", "setting": "[6]", "value": "16 (21) %"},
      {"measurement": "Objective response rate per investigator assessment", "setting": "Regimen 2, 6 mg continuous, bone metastases", "value": "6/15 (40) %"},
      {"measurement": "Not evaluable or unknown per investigator assessment", "setting": "[7]", "value": "2 (2.0) %"},
      {"measurement": "Objective response rate per investigator assessment", "setting": "[7]", "value": "40.4% and 40% and 40 (40.4) %"},
      {"measurement": "Partial response per investigator assessment", "setting": "[7]", "value": "37 (37.4) %"},
      {"measurement": "Progressive disease per investigator assessment", "setting": "[7]", "value": "18 (18.2) %"},
      {"measurement": "Stable disease per investigator assessment", "setting": "[7]", "value": "39% and 39 (39.4) %"},
      {"measurement": "Objective response rate per investigator assessment", "setting": "Regimen 3, 8 mg continuous, with FGFR3 mutations (n=74)", "value": "48.6% and 36/74 (48.6) %"},
      {"measurement": "Median DoR (95% CI), investigator assessment", "setting": "Regimen 3, chemotherapy-refractory patients, N = 87", "value": "5.55 (4.21, 7.00) months"},
      {"measurement": "Confirmed complete response (CR)", "setting": "[8]", "value": "7 (3.7%)"},
      {"measurement": "Confirmed partial response (PR)", "setting": "[8]", "value": "61 (32.3%)"},
      {"measurement": "Disease control rate (CR + PR + SD)", "setting": "[8]", "value": "147 (77.8%)"},
      {"measurement": "Inevaluable", "setting": "[8]", "value": "8 (4.2%)"},
      {"measurement": "Objective response rate (CR + PR)", "setting": "[8]", "value": "68 (36.0%)"},
      {"measurement": "Progressive disease (PD)", "setting": "[8]", "value": "34 (18.0%)"},
      {"measurement": "6-month progression-free survival rate (95% CI), among responders", "setting": "[9]", "value": "0.50 (0.11, 0.80)"},
      {"measurement": "9-month progression-free survival rate (95% CI), among responders", "setting": "[9]", "value": "0.50 (0.11, 0.80)"},
      {"measurement": "12-month progression-free survival rate (95% CI), among responders", "setting": "[9]", "value": "0.50 (0.11, 0.80)"},
      {"measurement": "Confirmed complete response (CR)", "setting": "[10]", "value": 0, "unit": "%"},
      {"measurement": "Confirmed partial response (PR)", "setting": "[10]", "value": "6 (17.1%)"},
      {"measurement": "Disease control rate (CR + PR + SD)", "setting": "[10]", "value": "25 (71.4%)"},
      {"measurement": "Inevaluable", "setting": "[10]", "value": "2 (5.7%)"},
      {"measurement": "Objective response rate (CR + PR)", "setting": "[10]", "value": "6 (17.1%)"},
      {"measurement": "Progressive disease (PD)", "setting": "[10]", "value": "8 (22.9%)"},
      {"measurement": "6-month progression-free survival rate (95% CI), among responders", "setting": "[11]", "value": "0.45 (0.32, 0.58)"},
      {"measurement": "9-month progression-free survival rate (95% CI), among responders", "setting": "[11]", "value": "0.29 (0.17, 0.42)"},
      {"measurement": "12-month progression-free survival rate (95% CI), among responders", "setting": "[11]", "value": "0.22 (0.12, 0.35)"},
      {"measurement": "Confirmed complete response (CR)", "setting": "[12]", "value": "6 (4.1%)"},
      {"measurement": "Confirmed partial response (PR)", "setting": "[12]", "value": "52 (35.4%)"},
      {"measurement": "Disease control rate (CR + PR + SD)", "setting": "[12]", "value": "117 (79.6%)"},
      {"measurement": "Inevaluable", "setting": "[12]", "value": "5 (3.4%)"},
      {"measurement": "Objective response rate (CR + PR)", "setting": "[12]", "value": "58 (39.5%)"},
      {"measurement": "Progressive disease (PD)", "setting": "[12]", "value": "25 (17.0%)"},
      {"measurement": "6-month progression-free survival rate (95% CI), among responders", "setting": "[13]", "value": "0.50 (0.06, 0.84)"},
      {"measurement": "9-month progression-free survival rate (95% CI), among responders", "setting": "[13]", "value": "0.50 (0.06, 0.84)"},
      {"measurement": "12-month progression-free survival rate (95% CI), among responders", "setting": "[13]", "value": "0.25 (0.01, 0.67)"},
      {"measurement": "Confirmed complete response (CR)", "setting": "Total (all 3 regimens), FGFR mutations and fusions, n=7", "value": "1 (14.3%)"}
    ]}
  ]
}
